Results from publication PMC9166630, “SAR Probing of KX2-391 Provided Analogues With Juxtaposed Activity Profile Against Major Oncogenic Kinases” (Frontiers in Oncology, 2022).
Read-outs that look alike come from different tables or passages of the source.

Assays:
[1] = tested on: MV4-11 leukemia cell line; assay: CellTiter-Blue cell viability assay, MV4-11; assay type: cell-based; settings: Homo sapiens
Procedure: (§1) HL60, K562, MV4-11 and NB4 were purchased from CLS Cell Line Service GmbH (Eppelheim, Germany). All cell lines were cultured in RPMI-1640 medium supplemented with 10% fetal bovine serum (FBS) (Thermo Fisher Scientific) and 0.1% ciprofloxacin (2.5mg/ml; Cipla Limited; Mumbai, India), and were maintained at 37°C in the presence of 21% O2 and 5% CO2.
(§2) Cell viability was determined using the CellTiter®-Blue Cell Viability Assay kit (Promega, Madison, WI, USA). Approximately 10^4 cells were counted and plated in a 96-well plate in the presence of test compounds ranging from 0.01 to 10 or 20 µM in triplicate and were incubated for 48 h at 37°C in a humidified incubator. After the incubation period was complete, 20 µL of CellTiter®-Blue Cell Viability Assay reagent was added to each well and incubated for additional 2 h for the development of florescence. Florescence was measured at Ex/Em 540/590 on SpectraMax® i3 Multi-Mode microplate reader (Molecular Devices, LLC; San Jose, CA, USA) and plotted against drug concentration to determine the IC50 of the test compounds. The IC50 was obtained by non-linear regression model using GraphPad Prism 6.07 (GraphPad Software, Inc, USA).

K562 leukemia cell line = assay: CellTiter-Blue cell viability assay, K562; assay type: cell-based; settings: Homo sapiens
Procedure: as §1, §2

HL60 leukemia cell line = assay: CellTiter-Blue cell viability assay, HL60; assay type: cell-based; settings: Homo sapiens, HL-60
Procedure: as §1, §2

NB4 leukemia cell line = assay: CellTiter-Blue cell viability assay, NB4; assay type: cell-based, human; settings: Homo sapiens
Procedure: as §1, §2

[2] = tested on: MCF7 (breast) cancer cells; assay: SRB cytotoxicity assay, MCF7; assay type: cell-based, human; settings: maximum tested concentration 50 µM, read-out: IC50 ± SEM, MCF7
Procedure: (§3) MCF7 (breast) or N87 (stomach) cancer cells were grown in Roswell Park Memorial Institute-1640 (RPMI-1640) medium (Thermo Fisher Scientific, Inc; Waltham, MA, USA), supplemented with 10% heat inactivated fetal bovine serum (FBS), 50 units/mL of penicillin and […] of streptomycin and maintained at 37°C in a humidified atmosphere containing 5% CO2. The cells were maintained as “monolayer culture” by serial subculturing.
(§4) Cytotoxicity was determined using Sulforhodamine B (SRB) method as previously described by Skehan et al. ([66]). Exponentially growing MCF7 and N87 cells were collected using 0.25% Trypsin-EDTA and were then seeded in 96-well plates at a density of 1000-2000 cells/well in 10% FBS and penicillin/streptomycin supplemented RPMI-1640 medium. After 24 h, cells were treated with different concentrations of test compounds and incubated for 72 h at 37°C in a humidified atmosphere containing 5% CO2. Next, the cells were fixed by adding trichloroacetic acid (TCA, 10% final conc. in wells) directly to the wells and incubated for 1 h at 4°C, then cells were washed with distilled water 5 times to remove excess TCA, media, serum proteins, and metabolites, followed by air drying. After that, the fixed cells were stained with 0.4% SRB dissolved in 1% acetic acid for 10 min at room temperature, and excess stain was removed by quickly rinsing with 1% acetic acid. The residual acetic acid was removed completely by air drying the plates for 24 h, and the dye was solubilized with Tris buffer (pH= 7.4, 10 mM) for 5 min on a shaker at 1600 rpm. The optical density (OD) of each well was measured spectrophotometrically at 564 nm with an ELISA microplate reader (ChroMate-4300, FL, USA). The IC50 values (concentration of drug resulting in 50% reduction in cell survival) were calculated according to the equation for Boltzman sigmoidal concentration–response curve using the nonlinear regression fitting models (Graph Pad, Prism Version 5).

HCT116 cell line = assay: MTT anti-proliferative assay, HCT116; assay type: cell-based, human; settings: maximum tested concentration 50 µM, read-out: IC50 ± SEM, HCT116
Procedure: The test compounds were evaluated for anti-proliferative activity using the MTT viability assay against HCT116 cell line. Cells were seeded in triplicate in 96-well plates at a density of 10x 10^3 cells/mL in a total volume of 200 µL per well. 0.1% of DMSO was used as a vehicle control. Each well was treated with 2 µL test compounds, which had been pre-prepared as stock solutions in […] to furnish the concentration range of study, 0.1 µM to 50 µM, and re-incubated for a further 72 h at 37°C in a humidified atmosphere containing 5% CO2. The culture medium was then removed, and the cells were washed with 100 µL PBS and 100 µL MTT was added, to reach a final concentration of 1 mg/mL MTT. Cells were incubated for 3 h in darkness at 37°C. After that, MTT solution was removed and MTT was solubilized by adding […] DMSO. The cells were maintained at room temperature in darkness for 20 min to ensure thorough color diffusion before reading the absorbance using a microplate reader at 570 nm. All experiments were conducted in triplicates. Results were expressed as percentage viability relative to vehicle control (100%). Dose response curves were plotted and IC50 values (concentration of drug resulting in 50% reduction in cell survival) were obtained using the commercial software package Prism (GraphPad Software, Inc., La Jolla, CA, USA).

[3] = tested on: N87 (stomach) cancer cells; assay: SRB cytotoxicity assay, N87; assay type: cell-based; settings: Homo sapiens, 72 h, maximum tested concentration 50 µM, read-out: IC50 ± SEM, N87
Procedure: as §3, §4

[4] = CellTiter-Blue, 48 h, maximum tested concentration 20 µM, read-out: IC50 ± SEM, MV4-11
[5] = CellTiter-Blue, 48 h, maximum tested concentration 20 µM, read-out: IC50 ± SEM, K562
[6] = CellTiter-Blue, 48 h, maximum tested concentration 20 µM, read-out: IC50 ± SEM, HL60
[7] = 48 h, CellTiter-Blue, 48 h, maximum tested concentration 20 µM, read-out: IC50 ± SEM, NB4

Structure (SMILES)	IC50 [1, 4]	IC50 (K562 leukemia cell line; [5])	IC50 (HL60 leukemia cell line; [6])	IC50 (NB4 leukemia cell line; [7])	melting point	IC50 ([2]; 72 h)	IC50 ([2]; Homo sapiens, MCF7, 72 h)	IC50 (HCT116 cell line; 72 h)	IC50 (HCT116 cell line; Homo sapiens, HCT-116, 72 h)	IC50 [3]	IC50 ([1]; positive reference for validation, read-out: IC50, MV411)	IC50 (K562 leukemia cell line; positive reference for validation, read-out: IC50, K562)	IC50 (HL60 leukemia cell line; positive reference for validation, read-out: IC50, HL60)	IC50 (NB4 leukemia cell line; positive reference for validation, read-out: IC50, NB4)
O=C(Cc1ccc(NC(=O)c2cncc(Cl)c2)cc1)NCc1ccccc1 [Compound 4o, N-(4-(2-(benzylamino)-2-oxoethyl)phenyl)-5-chloronicotinamide]	> 20 µM	> 20 µM	> 20 µM	5.89 ± 1.11 µM	231 °C									
Nc1ccc(CC(=O)NCc2ccccc2)cc1 [Compound 3a, 2-(4-aminophenyl)-N-benzylacetamide]					140 to 141 °C	> 50 µM	> 100 µM	> 50 µM	> 100 µM	> 50 µM				
O=C(Cc1ccc(NC(=O)c2cccc(F)c2)cc1)NCc1ccccc1 [Compound 4d, N-(4-(2-(benzylamino)-2-oxoethyl)phenyl)-3-fluorobenzamide]	3.2 ± 0.09 µM	2.68 ± 0.03 µM	2.96 ± 0.25 µM		214 °C		6.55 ± 1.34 µM		19 ± 4.18 µM	> 50 µM				
O=C(Cc1ccc(NC(=O)c2ccnc(Cl)c2)cc1)NCc1ccccc1 [Compound 4m, N-(4-(2-(benzylamino)-2-oxoethyl)phenyl)-2-chloroisonicotinamide]	6.33 ± 4.24 µM	12.4 ± 1.39 µM	> 20 µM	3.46 ± 0.06 µM										
CCC(=O)Nc1ccc(CC(=O)NCc2ccccc2)cc1 [Compound 4b, N-(4-(2-(benzylamino)-2-oxoethyl)phenyl)propionamide]	> 20 µM	> 20 µM	> 20 µM		210 °C		27.7 ± 9.38 µM		> 50 µM	32 ± 6.34 µM				
O=C(Cc1ccc(NC(=O)c2cccc(Cl)c2)cc1)NCCc1ccccc1 [Compound 4q, 3-Chloro-N-(4-(2-oxo-2-(phenethylamino)ethyl)phenyl)benzamide]	> 20 µM	> 20 µM	> 20 µM		160 °C									
O=C(Cc1ccc(NC(=O)c2ccc(Cl)cc2)cc1)NCc1ccccc1 [Compound 4f, N-(4-(2-(benzylamino)-2-oxoethyl)phenyl)-4-chlorobenzamide]					190 °C		> 50 µM			48.3 ± 7.44 µM				
COc1cccc(C(=O)Nc2ccc(CC(=O)NCc3ccccc3)cc2)c1 [Compound 4h, N-(4-(2-(benzylamino)-2-oxoethyl)phenyl)-3-methoxybenzamide]	2.4 ± 0.49 µM	4.23 ± 2.44 µM	3.27 ± 0.15 µM	1.96 ± 1.33 µM										
Cc1ccc(S(=O)(=O)Nc2ccc(CC(=O)NCc3ccccc3)cc2)cc1 [Compound 4g, N-benzyl-2-(4-((4-methylphenyl)sulfonamido)phenyl)acetamide]	> 20 µM	> 20 µM	> 20 µM		140 °C		> 50 µM		> 50 µM					
O=C(Cc1ccc(NC(=O)c2ccc(Cl)o2)cc1)NCc1ccccc1 [Compound 4p, N-(4-(2-(benzylamino)-2-oxoethyl)phenyl)-5-chlorofuran-2-carboxamide]	> 20 µM	> 20 µM	> 20 µM	> 20 µM	217 °C									
O=C(Cc1ccc(NC(=O)c2cccc(OCCN3CCOCC3)c2)cc1)NCc1ccccc1 [Compound 4i, N-(4-(2-(benzylamino)-2-oxoethyl)phenyl)-3-(2-morpholinoethoxy)benzamide]	16.3 ± 4.43 µM	17.4 ± 2.63 µM	> 20 µM	> 20 µM										
O=C(Cc1ccc(NC(=O)c2cccc(Cl)c2)cn1)NCc1ccccc1 [Compound 4s, N-(6-(2-(benzylamino)-2-oxoethyl)pyridin-3-yl)-3-chlorobenzamide]	2.87 ± 0.3 µM	4 ± 1.5 µM	6.24 ± 3.3 µM	1.74 ± 0.16 µM										
COc1ccc(C(=O)Nc2ccc(CC(=O)NCc3ccccc3)cc2)cc1Cl [Compound 4j, N-(4-(2-(benzylamino)-2-oxoethyl)phenyl)-3-chloro-4-methoxybenzamide]	20 ± 0.16 µM	13.04 ± 0.04 µM	> 20 µM	5.33 ± 1.43 µM	186 °C									
CC(=O)Nc1ccc(CC(=O)NCc2ccccc2)cc1 [Compound 4a, 2-(4-acetamidophenyl)-N-benzylacetamide]						29.3 ± 4.64 µM	29.3 µM	18.8 ± 3.06 µM	18.8 µM	> 50 µM				
O=C(Cc1ccc(NC(=O)c2cccc(Cl)c2)cc1)NCc1ccco1 [Compound 4r, 3-Chloro-N-(4-(2-((furan-2-ylmethyl)amino)-2-oxoethyl)phenyl)benzamide]	> 20 µM	> 20 µM	> 20 µM		206 °C									
O=C(Cc1ccc(NC(=O)c2ccc(OCCN3CCOCC3)c(Cl)c2)cc1)NCc1ccccc1 [Compound 4l, N-(4-(2-(benzylamino)-2-oxoethyl)phenyl)-3-chloro-4-(2-morpholinoethoxy) benzamide]	18.85 ± 0.12 µM	12.96 ± 0.08 µM	> 20 µM	8.77 ± 1.75 µM	147 °C									
O=C(Cc1ccc(-c2ccc(OCCN3CCOCC3)cc2)cn1)NCc1ccccc1 [KX2-391, Tirbanibulin]											0.00419 µM	0.0145 µM	0.0121 µM	0.0033 µM
O=C(Cc1ccc(NC(=O)c2ccccc2)cc1)NCc1ccccc1 [Compound 4c, N-(4-(2-(benzylamino)-2-oxoethyl)phenyl)benzamide]	11.9 ± 0.96 µM	> 20 µM	5.27 ± 1.94 µM		212 °C		5.11 ± 3.03 µM		19.7 ± 4.79 µM	> 50 µM				
COc1ccc(C(=O)Nc2ccc(CC(=O)NCc3ccccc3)cc2)cc1OC [Compound 4k, N-(4-(2-(benzylamino)-2-oxoethyl)phenyl)-3,4-dimethoxybenzamide]	7.95 ± 0.31 µM	> 20 µM	> 20 µM	9.88 ± 2.8 µM	215 °C									
